Among the data in a melting point compilation (Tetko et al.; mined from patent text by program, amines drawn as free bases though some values may be those of a salt) are melting point values, retold here.

In general, melting point refers to the temperature of the solid-liquid transition. With `COc1cc2c(cc1C(F)(F)F)N(C(=O)Nc1ccc(F)c(-c3cccnc3)c1)CC2`, the melting point fell in the range of 210 to 212 °C.

`CC(C)(C)CC(C)(C)c1cc(N=Nc2ccc(C(F)(F)F)cc2[N+](=O)[O-])c(O)c(C(C)(C)c2ccccc2)c1` came in with a melting point of 101 to 105 °C.

On to `Oc1cc(CCl)nc(C(Cl)(Cl)Cl)n1`, for which the melting point was in the range of 138 to 144 °C.

The molecule `CCCCOc1ccc(-c2ccc(C)c(C#N)c2C#N)cc1` registered a melting point of 152 °C.

Consider `CC(=O)C(=Cc1ccc(C(=O)O)cc1)C(C)=O`, for which the melting point was in the range of 195 to 199 °C.

In turn, `OCCCC(c1c[nH]c2ccccc12)c1c[nH]c2ccccc12` had a melting point of 110 to 115 °C.

Molecule `CC(C)C1COC(=O)N1C(=O)CCCCOCc1ccccc1` (centres undefined) registered a melting point of 133 °C.

The molecule `CCN(C)C(=O)/C=C/CSc1nc(N)cc(Cl)n1` registered a melting point of 170 to 172 °C.

Regarding `Cc1oc(-c2ccccc2)nc1COc1ccc(COc2ncccc2C#N)cn1`, the melting point was 117 to 118 °C.

`O=S(=O)(NS(=O)(=O)OCC(F)(F)F)OCC(F)(F)F` yielded a melting point of 55 to 58 °C.

In turn, `COC(=O)C(CC(C)C)NC(=O)C(CC(=O)c1ccccc1)Cc1ccccc1` (centres undefined) had a melting point of 81 to 83 °C.

`CS(=O)(=O)Oc1cc(N)c(F)cc1Cl` came in with a melting point of 79 to 80 °C.

In turn, `CCCCc1c(C(=O)O)[nH]c2c(Br)cccc2c1=O` gave a melting point of 220 °C.

`CS(=O)(=O)Nc1cccc(Nc2nc(NC3CN4CCC3CC4)c3nc[nH]c3n2)c1` (centres undefined) displayed a melting point of 200 to 204 °C.

The molecule `BrCc1ccc2sc3ccc4ccccc4c3c2c1` registered a melting point of 202 to 203 °C.

`COc1ccc(Cl)c2c1c1c(n2Cc2ccccc2)CCCC1C(N)=O` (centres undefined): the melting point lay within 205 to 208 °C.

`CC(=O)N(C)c1ccc(N(CCCCN(c2ccc(N(C)C(C)=O)cc2)S(=O)(=O)c2ccccc2)S(=O)(=O)c2ccccc2)cc1`: the melting point worked out at 235 °C.

For the molecule `CCCCCCCCCCCCOc1cccc(C2=C(O)C(O)(Cc3ccccc3)N(C)C2=O)c1` (centres undefined), the melting point lay within 110 to 111 °C.

The molecule `O=C1c2ccccc2C(=O)N1CCON1CCNC1=Nc1c(Cl)cccc1Cl` came in with a melting point of 129 to 130 °C.

For the molecule `O=C(O)CCC(CC=Cc1ccccc1)(C(=O)C=Cc1ccc(Cl)cc1)c1ccccc1` (centres undefined), the melting point was 135 to 140 °C.

In turn, `CCCN1CCN(CCCOc2cc3ncc(C#N)c(Nc4cc(OC)c(Cl)cc4Cl)c3cc2OC)CC1` gave a melting point of 97 to 101 °C.

`CCOC(=O)c1cnoc1-c1ccc(Cl)c(Br)c1` displayed a melting point of 109 to 110 °C.

In turn, `CCCC[C@H](NC(=O)[C@H](CC(C)C)NC(=O)COc1ccc(OC)cc1)C(=O)CSCc1ccco1` showed a melting point of 86 to 88 °C.

As for `Cc1c(C(=O)O)c[nH]c1C(=O)c1ccccc1`, the melting point is 241 to 243 °C.

The molecule `CS(=O)(=O)OCC1CSC2=C(O1)c1ccccc1C(=O)C2=O` (centres undefined) came in with a melting point of 230 to 232 °C.

Molecule `CCCCCCCCCCCCCCCCOc1cc(C(=O)O)c(O)c2ccccc12` yielded a melting point of 121 to 124 °C.

Molecule `CC1(C)C=C(N2CCCC2=O)c2cc([N+](=O)[O-])ccc2O1` had a melting point of 135 to 137 °C.

As to `CC(C)Cc1ccc(-c2ncccc2S(=O)(=O)Oc2ccc([N+](=O)[O-])cc2)cc1`, the melting point lay within 123 to 124 °C.

In turn, `CCN(C=CC(=O)c1cccnc1)CC` yielded a melting point of 193 to 195 °C.

The molecule `COC(=O)c1cccc(CN2CCOc3ccc(N)cc32)c1` displayed a melting point of 167 to 171 °C.

Molecule `CC1=NN=C(c2cc3ccccc3s2)c2cc3oc(=O)[nH]c3cc2C1` showed a melting point of 338 to 340 °C.

Molecule `CN(c1ccc(Cl)cc1[N+](=O)[O-])S(=O)(=O)c1ccc(Cl)s1` returned a melting point of 85 to 86 °C.

On to `O=C1N[C@H](Cc2ccccc2C(F)(F)F)[C@H](c2ccc(F)cc2)O1` (racemic), for which the melting point lay in the range of 138 to 140 °C.

In the case of `CCOc1ccc(C=CCCCCC(=O)O)cc1`, the melting point was in the range of 62 to 63 °C.

In turn, `O=C(O)Cn1c(=O)c(=O)[nH]c2ccc(Cl)cc21` came in with a melting point of more than 285 °C.

On to `CCCCCCCCCCCOc1cccc(CCCC(NC(C)=O)(C(=O)OCC)C(=O)OCC)c1`, for which the melting point lay in the range of 38 to 39 °C.

Molecule `NC(=O)c1csc(Cl)c1` gave a melting point of 138 to 139 °C.

Take `Cc1nc(N2CCN(CC3CCCCO3)C2=O)sc1C(=O)NCc1cccnc1` (centres undefined): the melting point is 174 to 175 °C.

`N#Cc1ccccc1CNC(=O)C1Cc2ccccc2N1S(=O)(=O)c1ccc(-c2cccc(C(F)(F)F)c2)cc1` (centres undefined) had a melting point of 70 °C.

Turning to `CC(C)CN=C1C(c2ccccc2)=C(c2ccccc2)C(c2ccccc2)=C1c1ccccc1`, the melting point turned out to be 158 °C.

`COc1ccc(Cl)cc1C(=O)N(CCCC(=O)O)C(c1ccccc1)c1ccccc1`: the melting point was in the range of 176 to 178 °C.

`COc1ccc(C2OC2C(N)=O)cc1` (centres undefined) displayed a melting point of 142 to 144 °C.

Regarding `COC1(c2cccc(Sc3cc(C)c4c(ccc(=O)n4C)c3)c2)CCOCC1`, the melting point is 101 to 102 °C.

As to `CN(C)C(=O)N(SC(N)=S)c1ccccc1`, the melting point lay within 185 to 188 °C.

`Cc1cc2c(cc1C1=NNC(=O)CC1C)N(C)C(=O)C(C)O2` (centres undefined) had a melting point of 190 to 192 °C.

`Cc1cc(OCCCS(C)(=O)=O)cc(C)c1-c1cccc2c1OC[C@H]2Nc1ccc2c(c1)OC[C@H]2CC(=O)O` gave a melting point of 169 °C.

As to `CCc1c(-c2ccc(OCc3ccccc3)cc2)cn2cccc(CO)c12`, the melting point fell in the range of 144 to 145 °C.

`N[C@H](C(=O)O)[C@H](S)c1ccccc1` returned a melting point of 107 to 108 °C.

Regarding `CN1C(=O)c2ccccc2N(N=O)c2ccccc21`, the melting point fell in the range of 95 to 98 °C.

With `O=[N+]([O-])c1ccc(-c2nc3ccc(F)cc3s2)cc1`, the melting point was in the range of 201 to 202 °C.

Turning to `CCC(C)c1ccc(-n2c(-c3ccc(OCCO)cc3)nc3ccccc3c2=O)cc1` (centres undefined), the melting point lay within 173 to 175 °C.

`O=C(Cc1cccc2ccccc12)N[C@H](Cc1ccc(C(F)(F)F)cc1)[C@@H](O)c1ccc(F)cc1` (racemic) had a melting point of 186 to 187 °C.

Molecule `O=S=c1cc(-c2ccc(O)cc2)ss1` displayed a melting point of 118 to 124 °C.

The molecule `O=c1cc(-c2ccncn2)nc2n1CCCCC2` had a melting point of 148 to 150 °C.

`CCCc1ccc2c(c1)C=Cc1sc(C)nc1C2c1cn(C)c(=O)[nH]c1=S` (centres undefined) registered a melting point of 235 °C.

Molecule `CCOC(=O)C1=C(N)N=C(OCC)C(C(=O)OCC)C1c1cccc(C#N)c1` (centres undefined) displayed a melting point of 159 °C.

`N#CCCC(C#N)(CCC#N)C(N)=O` showed a melting point of 118 to 120 °C.

Turning to `CN1Cc2c(CO)ncn2-c2cccc(Cl)c2C1=O`, the melting point lay in the range of 207 to 208 °C.

The molecule `CC(=O)OCc1nc(C(Cl)Cl)cnc1N1C(=O)c2ccccc2C1=O` returned a melting point of 117 to 118 °C.

In turn, `CNC(=O)Cn1c(-c2ccc(Br)o2)nc2cccnc21` had a melting point of 187 to 191 °C.

With `COC(=O)c1cc(OC)c(C(=O)OC)cc1OC`, the melting point is 141 to 143 °C.

The molecule `O=[N+]([O-])c1c(Br)nn(Cc2ccccc2)c1NCCO` had a melting point of 110 to 112 °C.

`Oc1ccc(C2=C(c3ccc(OC4CCCCO4)cc3)CCCc3cc(OC4CCCCO4)ccc32)cc1` (centres undefined) registered a melting point of 182 to 183 °C.

For the molecule `FC(F)(F)Oc1ccc(C=Cc2nc[nH]n2)cc1`, the melting point lay in the range of 125 to 127 °C.

With `CC(C)(C)c1ncc(C(C(=O)O)C(C)(C)C)cn1` (single isomer, unassigned; (+)), the melting point was 222 to 224 °C.

The molecule `COc1c(Br)cccc1[N+](=O)[O-]` gave a melting point of 55 to 56 °C.

Regarding `CN(C)C(=O)NCCc1cccc(-c2nc(=O)c3ccccc3s2)n1`, the melting point was in the range of 190 to 191 °C.

Take `CSc1nc(NCCC(C)C)c2[nH]nc(C)c2n1`: the melting point lay in the range of 90 to 95 °C.

Take `O=C(NCc1c[nH]c(-c2cc3nc(C(=O)O)c(=O)[nH]c3cc2[N+](=O)[O-])n1)Nc1ccccc1F`: the melting point came out at 300 °C.

The molecule `COc1ccc2c(c1)CCC1C2CCC2(C)C(=O)C=C(C(C)C)C12` (centres undefined) gave a melting point of 113 to 116 °C.

In turn, `CN1Cc2ccccc2CC1c1ccc(C(C)(C)C)cc1` (centres undefined) returned a melting point of 53 to 54.5 °C.

`O=C1c2cccc([N+](=O)[O-])c2C2CC3(CCN12)SCCS3` (centres undefined) displayed a melting point of 185 °C.

With `CC(=O)OC1C(C)=C(C)C(=O)N1c1nc2ccc(F)cc2s1` (centres undefined), the melting point lay within 180 to 183 °C.

`CCN(CC)CCc1ccc(NC(=O)C#Cc2ccc(C(F)(F)F)cc2Cl)cc1` returned a melting point of 145 to 150 °C.

Molecule `CC(C)C(NC(=O)OCc1cccnc1)C(=O)NC(Cc1ccccc1)C(O)C(Cc1ccccc1)NC(=O)C(NC(=O)OCc1cccnc1)C(C)C` (centres undefined) returned a melting point of 177 to 178 °C.

The molecule `CC(C)Cn1c(CNC(=O)OC(C)(C)C)c(-c2ccc(F)cc2)c2cc(OCC(N)=O)ccc2c1=O` returned a melting point of 218 to 219 °C.

In turn, `Cc1cc(N2CCN(c3c(C)c(C)c4c(c3C)CC(C)(C)O4)CC2)ccc1F` came in with a melting point of 143 to 145 °C.

In turn, `O=c1[nH]c2ncc(-c3ccc(F)cc3)nc2c(O)c1-c1c(F)cc(F)cc1F` showed a melting point of 285 to 288 °C.

`OCc1cnc2sc3ccccc3n12` displayed a melting point of 183 to 184 °C.

`Brc1ccc(C2=CCCC2)cc1` returned a melting point of 94 to 95 °C.

Turning to `CS(=O)(=O)NC1=CC(NC(=O)CCl)([N+](=O)[O-])CC=C1OC1CCCCC1` (centres undefined), the melting point lay within 208 to 210 °C.

Turning to `O=C(O)CNC(=O)c1c(Cl)cc(N2C(=O)N3CCCC3(Cc3ccc(Br)cc3)C2=O)cc1Cl` (centres undefined), the melting point is 157 to 158 °C.

`COC(=O)CCCc1cc2cc(Cl)ccc2n1S(=O)(=O)c1ccc(OC)cc1` yielded a melting point of 97 to 98 °C.

Molecule `Cc1cccc2c(=O)n([C@H](C)[C@](O)(Cn3cncn3)c3ccc(F)cc3F)cnc12` showed a melting point of 141 to 144 °C.

Turning to `Cc1cc2c(c(C)c1NC(=O)CC(C)(C)C)C(c1ccc(C(C)C)cc1)CO2` (centres undefined), the melting point was 130 to 131 °C.

`Brc1c(NC2=NCCN2)ccc2c1NCCN2`: the melting point was 218 to 220 °C.

Turning to `Cc1ccc(S(=O)(=O)N[C@@H](C)C(=O)O)cc1`, the melting point is 134 to 135 °C.

In the case of `CS(=O)c1nc(-c2ccccc2)cs1` (centres undefined), the melting point was in the range of 104 to 105 °C.

Take `CC(C)C12OC1C1OC13C1(C)CCC4=C(COC4=O)C1CC1OC13C2O` (centres undefined): the melting point lay within 226 to 228 °C.
